Values after ≈ are worked out from the molar mass of the structure shown.
Columns and labels:
[1] = tested on: Mycolicibacterium smegmatis; assay: Antimycobacterial activity against Mycobacterium smegmatis str. MC2 155 assessed as reduction in bacterial viability incubated for 3 days by MTT assay; assay type: organism-based; settings: 72 h
Mycobacterium avium [2] = assay: Antimycobacterial activity against Mycobacterium avium ATCC 25291 assessed as reduction in bacterial viability incubated for 3 days by MTT assay; assay type: organism-based; settings: mycobacterium avium subsp. avium atcc 25291, 72 h
Mycobacterium avium [3] = assay: Antimycobacterial activity against Mycobacterium avium isolate MAV1 assessed as reduction in bacterial viability incubated for 3 days by MTT assay; assay type: organism-based; settings: in vitro, 72 h
Mycobacterium avium [4] = assay: Antimycobacterial activity against Mycobacterium avium isolate MAV2 assessed as reduction in bacterial viability incubated for 3 days by MTT assay; assay type: organism-based; settings: 72 h
Mycobacterium avium [5] = assay: Antimycobacterial activity against Mycobacterium avium isolate MAV3 assessed as reduction in bacterial viability incubated for 3 days by MTT assay; assay type: organism-based; settings: 72 h
Mycobacterium avium [6] = assay: Antimycobacterial activity against Mycobacterium avium isolate MAV4 assessed as reduction in bacterial viability incubated for 3 days by MTT assay; assay type: organism-based; settings: 72 h
[7] = Cytotoxicity in human monocyte-derived macrophages assessed as reduction in cell viability incubated for 3 days by alamar blue dye based assay; parameters: species or system Macrophage cell line; settings: for CC50 at 72 h: human monocyte-derived macrophages; for MTC: macrophage cell line, 72 h
Mycobacterium avium [8] = settings: 72 h
Description: Antimycobacterial activity against Mycobacterium avium 104 assessed as reduction in bacterial viability incubated for 3 days by MTT assay

Mycobacterium avium [9] = settings: in vivo, 72 h
Description: Antimycobacterial activity against Mycobacterium avium 104 mc'2 3 assessed as reduction in bacterial viability incubated for 3 days by MTT assay

Mycobacterium avium [10] = settings: in vivo, 72 h; remark: listed apart in the source
Description: Antimycobacterial activity against Mycobacterium avium 104 mc'2 4 assessed as reduction in bacterial viability incubated for 3 days by MTT assay

Mycobacterium avium [11] = assay: Inhibition of multidrug resistance efflux pump in Mycobacterium avium 104 assessed as increase in EtBr accumulation by measuring relative final fluorescence at 1/4 times MIC incubated for 60 mins by real-time fluorometry relative to control
Mycobacterium avium [12] = assay: Inhibition of multidrug resistance efflux pump in Mycobacterium avium 104 mc'2 3 assessed as increase in EtBr accumulation by measuring relative final fluorescence at 1/4 times MIC incubated for 60 mins by real-time fluorometry relative to control
Mycobacterium avium [13] = assay: Inhibition of multidrug resistance efflux pump in Mycobacterium avium 104 mc'2 4 assessed as increase in EtBr accumulation by measuring relative final fluorescence at 1/4 times MIC incubated for 60 mins by real-time fluorometry relative to control
[14] = tested on: Mycolicibacterium smegmatis MC2 155; assay: Inhibition of multidrug resistance efflux pump in Mycobacterium smegmatis str. MC2 155 assessed as increase in EtBr accumulation by measuring relative final fluorescence at <= 1/2 times MIC incubated for 60 mins by real-time fluorometry relative to control

Compound	MIC [1]	MIC (Mycobacterium avium [2]) [µg/mL]	MIC (Mycobacterium avium [3]) [µg/mL]	MIC (Mycobacterium avium [4]) [µg/mL]	MIC (Mycobacterium avium [5]) [µg/mL]	MIC (Mycobacterium avium [6]) [µg/mL]	CC50 at 72 h [7] [µM]	MTC [7] [µM]	MIC (Mycobacterium avium [8])	MIC (Mycobacterium avium [9])	MIC (Mycobacterium avium [10])	Ratio (Mycobacterium avium [11])	Ratio (Mycobacterium avium [12])	Ratio (Mycobacterium avium [13])	Ratio [14]
COc1ccc(CCN(C)CCCC(C#N)(c2ccc(OC)c(OC)c2)C(C)C)cc1OC (stereo not given)	800 µg/mL (≈ 1760 µM)	800 (≈ 1760 µM)	400 (≈ 880 µM)	400 (≈ 880 µM)	800 (≈ 1760 µM)	800 (≈ 1760 µM)	117	10	800 µg/mL (≈ 1760 µM)	800 µg/mL (≈ 1760 µM)	800 µg/mL (≈ 1760 µM)				
CC[C@H]1OC(=O)[C@H](C)[C@@H](O[C@H]2C[C@@](C)(OC)[C@@H](O)[C@H](C)O2)[C@H](C)[C@@H](O[C@@H]2O[C@H](C)C[C@H](N(C)C)[C@H]2O)[C@](C)(OC)C[C@@H](C)C(=O)[C@H](C)[C@@H](O)[C@]1(C)O [CLARITHROMYCIN]		8 (≈ 10.7 µM)	4 (≈ 5.35 µM)	> 1024	16 (≈ 21.4 µM)	8 (≈ 10.7 µM)			8 µg/mL (≈ 10.7 µM)	> 512 µg/mL	> 512 µg/mL				
CCCOc1ccc(-c2cn(C)c3ccccc3c2=O)cc1	256 µg/mL (≈ 873 µM)														
CC[n+]1c(-c2ccccc2)c2cc(N)ccc2c2ccc(N)cc21.[Br-] [HOMIDIUM BROMIDE]		50	25	12.5	12.5	50			25 µg/mL	25 µg/mL	25 µg/mL				
CC[C@H]1OC(=O)[C@H](C)[C@@H](O[C@H]2C[C@@](C)(OC)[C@@H](O)[C@H](C)O2)[C@H](C)[C@@H](O[C@@H]2O[C@H](C)C[C@H](N(C)C)[C@H]2O)[C@](C)(O)C[C@@H](C)C(=O)[C@H](C)[C@@H](O)[C@]1(C)O [ERYTHROMYCIN]				> 512	512 (≈ 698 µM)	512 (≈ 698 µM)				> 512 µg/mL	> 512 µg/mL				
CCCOc1ccc(-c2cn(CCN3CCN(Cc4ccccc4)CC3)c3ccccc3c2=O)cc1	64 µg/mL (≈ 133 µM)								256 µg/mL (≈ 532 µM)	256 µg/mL (≈ 532 µM)	256 µg/mL (≈ 532 µM)	3.19	2.93	1.96	
CC1COc2c(N3CCN(C)CC3)c(F)cc3c(=O)c(C(=O)O)cn1c23 (stereo not given) [OFLOXACIN]		64 (≈ 177 µM)	4 (≈ 11.1 µM)	4 (≈ 11.1 µM)	16 (≈ 44.3 µM)	16 (≈ 44.3 µM)			16 µg/mL (≈ 44.3 µM)	16 µg/mL (≈ 44.3 µM)	16 µg/mL (≈ 44.3 µM)				
CCCOc1ccc(-c2c[nH]c3ccccc3c2=O)cc1	Nd(Insoluble)								Nd(Insoluble)	Nd(Insoluble)	Nd(Insoluble)				
O=C(O)c1cn(C2CC2)c2cc(N3CCNCC3)c(F)cc2c1=O [CIPROFLOXACIN]		32 (≈ 96.6 µM)	2 (≈ 6.04 µM)	8 (≈ 24.1 µM)	32 (≈ 96.6 µM)	32 (≈ 96.6 µM)			16 µg/mL (≈ 48.3 µM)	16 µg/mL (≈ 48.3 µM)	16 µg/mL (≈ 48.3 µM)				
CC[C@H]1OC(=O)[C@H](C)[C@@H](O[C@H]2C[C@@](C)(OC)[C@@H](O)[C@H](C)O2)[C@H](C)[C@@H](O[C@@H]2O[C@H](C)C[C@H](N(C)C)[C@H]2O)[C@](C)(O)C[C@@H](C)CN(C)[C@H](C)[C@@H](O)[C@]1(C)O [AZITHROMYCIN]		64 (≈ 85.4 µM)	256 (≈ 342 µM)	> 512	256 (≈ 342 µM)	256 (≈ 342 µM)			> 512 µg/mL	> 512 µg/mL	> 512 µg/mL				
COc1ccc(-c2coc3cc(O)cc(O)c3c2=O)cc1 [BIOCHANIN]	> 64 µg/mL						50.4	20	> 64 µg/mL	> 64 µg/mL	> 64 µg/mL				0.63
CCCOc1ccc(-c2cn(CCCN(C)C)c3ccccc3c2=O)cc1	> 256 µg/mL								> 256 µg/mL	> 256 µg/mL	> 256 µg/mL				1.38
CCCOc1ccc(-c2cn(CCN3CCNCC3)c3ccccc3c2=O)cc1	> 256 µg/mL								> 256 µg/mL	> 256 µg/mL	> 256 µg/mL				1.42

Reference: ChEMBL document CHEMBL4130462, “Natural isoflavone biochanin A as a template for the design of new and potent 3-phenylquinolone efflux inhibitors against Mycobacterium avium” (Eur J Med Chem, 2017)
